From publication PMC9641905, “Synthesis, biological evaluation and molecular docking of new triphenylamine-linked pyridine, thiazole and pyrazole analogues as anticancer agents” (BMC Chemistry, 2022)

How the values were obtained:
MDA-MB-231 cell line = assay: MTT cytotoxicity assay, MDA-MB-231 breast cancer cell line; format: cell-based, human; conditions: breast cancer cells
Method: (§1) The lung cancer A-549 and the breast cancer MDA-MB-231 cell lines were obtained from the viscera Tissue Culture Unit. The cells were spread in Dulbecco’s modified Eagle’s medium (DMEM) supplemented with 10% heat-inactivated fetal bovine serum, 1% L-glutamine, HEPES buffer, and 50 µg/mL gentamycin. All cells were maintained at 37 °C in a humidified atmosphere with 5% CO2 and were sub-cultured two times a week.
(§2) The MTT assay was applied to determine the cytotoxicity of pyridine and thiazole derivatives. MTT or 3-(4,5-dimethylthiazol-2-yl)-2,5-diphenyltetrazolium bromide was purchased from Serva, Germany. The cell lines were introduced into 96-well plates at a cell concentration of 1 × 10^4 cells per well in 100 μL of complete medium (tests were done in duplicates). These plates were incubated for 24 h, 5% CO2, at 37 °C for settle down and adhesion. Control cells were incubated without the test sample and with or without DMSO. After incubation, different concentrations of samples were added after the period of incubation (48 h), media were inhaled, and the MTT solution was added to all wells for full 30 min. Briefly, the media was extracted from the 96 well plates and exchanged with 100 µl of fresh culture RPMI 1640 medium without phenol red then 10 µl of the 12 mM MTT stock solution (5 mg of MTT in 1 mL of PBS) to all wells inclusive the untreated controls. The 96 well plates were incubated at 37 °C and 5% CO2 for 4 h. An 85 µl aliquot of the media was taken away from the wells, added 50 µl of DMSO to all wells and mixed thoroughly, and incubated at 37 °C for 10 min. The absorbance of plates was measured after shaking on a microplate reader (TECAN, Inc.), using a test wavelength of 590 nm. Measure the optical density by the microplate reader to calculate the number of viable cells and the percentage of viability according to [(ODt/ODc)] × 100% where ODt (optical density of cells treated) with the tested sample and ODc (optical density of control cells).
(§3) In the vitro cytotoxic activity of triphenylamine-based pyridine, thiazole, pyrazole and/or isoxazole derivatives was estimated against two cell lines as lung cancer (A-549) and mammary gland breast cancer cell line (MDA-MB-231) by using MTT assay according to reported method. Cisplatin is one of the common alkylation agents was selected to be the reference drug. From graphic plots of the dose response curve determine the 50% inhibitory concentration (IC50) (Fig. 2).

[1] = MTT cytotoxicity assay against normal cells (MRC-5); format: cell-based; conditions: MRC-5 cells (normal lung fibroblasts), normal human lung fibroblasts, read-out: CC50 MRC-5 cell line
Method: as §2
(§4) The MTT assay was applied to determine the cytotoxicity of pyridine and thiazole derivatives against normal cell line to explore the selectivity of the tested compounds against tumor cells. The cytotoxicity was tested against human lung fibroblast noncancerous cell line (MRC-5).

A-549 cell line = assay: MTT cytotoxicity assay, A-549 lung cancer cell line; format: cell-based, human; conditions: lung cancer cells
Method: as §1, §2, §3

[2] = system: human lung fibroblast noncancerous cell line (MRC-5); assay: MTT cytotoxicity assay against normal cells (MRC-5); format: cell-based; conditions: normal human lung fibroblasts
Method: as §2, §4

| Compound | IC50 (MDA-MB-231 cell line; Homo sapiens, MDA-MB-231, 48 h) [nM] | CC50 at 48 h [1] [nM] | IC50 (A-549 cell line; Homo sapiens, A549, 48 h) [nM] | melting point [°C] | IC50 (MDA-MB-231 cell line; 48 h) [nM] | CC50 [2] [nM] | IC50 (A-549 cell line; 48 h) [nM] |
| --- | --- | --- | --- | --- | --- | --- | --- |
| Cc1ccc(-n2c(N)c(C#N)c(-c3ccc(N(c4ccccc4)c4ccccc4)cc3)c(C#N)c2=O)cc1 [4b, 6-Amino-4-(4-(diphenylamino)phenyl)-2-oxo-1-(p-tolyl)-1,2-dihydropyridine-3,5-dicarbonitrile] | 10.3 | 97.1 | 8.03 |  |  |  |  |
| CN(C)c1ccc(NC(=O)C(C#N)=c2sc(=O)c(=Cc3ccc(N(c4ccccc4)c4ccccc4)cc3)n2-c2ccccc2)cc1 [6b, 2-Cyano-N-(4-(dimethylamino)phenyl)-2-(4-(4-(diphenylamino)benzylidene)-5-oxo-3-phenylthiazolidin-2-ylidene)acetamide] | 123 | 768 | 79.2 |  |  |  |  |
| Cc1ccc(NC(=O)C(C#N)=c2sc(=O)c(=Cc3ccc(N(c4ccccc4)c4ccccc4)cc3)n2-c2ccccc2)cc1 [6c, 2-Cyano-2-(4-(4-(diphenylamino)benzylidene)-5-oxo-3-phenylthiazolidin-2-ylidene)-N-(p-tolyl)acetamide] | 51 | 143 | 48.5 |  |  |  |  |
| COc1ccc(NC(=O)C(C#N)=c2sc(=O)c(=Cc3ccc(N(c4ccccc4)c4ccccc4)cc3)n2-c2ccccc2)cc1 [6d, 2-Cyano-2-(4-(4-(diphenylamino)benzylidene)-5-oxo-3-phenylthiazolidin-2-ylidene)-N-(4-methoxyphenyl)acetamide] | 139 | 683 | 95.4 |  |  |  |  |
| O=C1ON=C(c2ccccc2)C1=Cc1ccc(N(c2ccccc2)c2ccccc2)cc1 [compound 10, 4-(4-(Diphenylamino)benzylidene)-3-phenylisoxazol-5(4H)-one] | 111 | 973 | 128 | 218 to 220 |  |  |  |
| CN(C)c1ccc(-n2c(N)c(C#N)c(-c3ccc(N(c4ccccc4)c4ccccc4)cc3)c(C#N)c2=O)cc1 [4d, 6-Amino-1-(4-(dimethylamino)phenyl)-4-(4-(diphenylamino)phenyl)-2-oxo-1,2-dihydropyridine-3,5-dicarbonitrile] |  | 1100 | 233 |  |  |  |  |
| CC1=NN(c2ccccc2)C(=O)C1=Cc1ccc(N(c2ccccc2)c2ccccc2)cc1 [compound 9, 4-(4-(Diphenylamino)benzylidene)-5-methyl-2-phenyl-2,4-dihydro-3H-pyrazol-3-one] | 268 | 1300 | 127 | 182 to 184 |  |  |  |
| CCN(CC)c1ccc(NC(=O)C(C#N)=c2sc(=O)c(=Cc3ccc(N(c4ccccc4)c4ccccc4)cc3)n2-c2ccccc2)cc1 [6a, 2-Cyano-N-(4-(diethylamino)phenyl)-2-(4-(4-(diphenylamino)benzylidene)-5-oxo-3-phenylthiazolidin-2-ylidene)acetamide] | 172 | 985 | 141 |  |  |  |  |
| 6-Amino-1-(p-anisyl)-4-(4-(diphenylamino)phenyl)-2-oxo-1,2-dihydropyridine-3,5-dicarbonitrile [4c] |  |  |  |  | 193 | 864 | 154 |
| CCOC(=O)C=c1sc(=Cc2ccc(N(c3ccccc3)c3ccccc3)cc2)c(=O)n1-c1ccccc1 [compound 8, ethyl-2-(5-(4-(diphenylamino)benzylidene)-4-oxo-3-phenylthiazolidin-2-ylidene)acetate] | 136 | 1100 | 219 | 250 to 252 |  |  |  |
| N.N.[Cl][Pt][Cl] [Cisplatin, reference compound] |  |  |  |  | 12 |  | 24.4 |
| N#Cc1c(-c2ccc(N(c3ccccc3)c3ccccc3)cc2)c(C#N)c(=O)n(-c2ccccc2)c1N [4a, 6-Amino-4-(4-(diphenylamino)phenyl)-2-oxo-1-phenyl-1,2-dihydropyridine-3,5-dicarbonitrile] | 55 | 137 | 46.9 |  |  |  |  |
| N#Cc1c(-c2ccc(N(c3ccccc3)c3ccccc3)cc2)c(C#N)c(=O)n(-c2ccc([N+](=O)[O-])cc2)c1N [4e, 6-Amino-4-(4-(diphenylamino)phenyl)-1-(4-nitrophenyl)-2-oxo-1,2-dihydropyridine-3,5-dicarbonitrile] | 14.7 | 82.3 | 9.5 |  |  |  |  |
